From patent publication US20150259294A1, “METHOD OF PLANT GROWTH PROMOTION USING CARBOXAMIDE DERIVATIVES” (BAYER CROPSCIENCE AG, priority 2012, published 2015) come the findings set out here.

The subject of one assay is wheat leave discs. Put plainly: Chlorophyll preservation bioassay in wheat leave discs. Conditions: for colour of leave discs at the end of the experiment: wheat and barley leave discs, 3 or 4 dpt in the dark; for Chlorophyll content (%): wheat leave discs at 4 dpt vs control at 0 dpt. The method, then: (§1) To confirm the greening effect of compounds of formula (I) according to the invention observed in field trials, a simple bioassay was set up using wheat and barley. Discs of 1 cm of diameter were cut within leaves collected from 4 weeks old plants and deep at room temperature in water for 1 hour to allow ethylene produced after wound injury to dissipate. Control samples were produced dipping leave discs for 15 min in a solution of 5% DMSO-10% acetone-0.005% tween80 (bioassay formulation), immediately frozen (control 0 day post treatment-dpt) or deposited on Whatmann filter paper soaked by the bioassay formulation, in Petri dishes, […] Leaves discs treated with test compound were processed in the same way. In this case, leave discs were deep for 15 minutes in test compound solution and left to incubate on filter paper soaked with the corresponding test solution. Compounds of formula (I) according to the invention were tested in EC100 formulation unless otherwise specified; Other SDHI fungicides (Fluxapyroxad, Isopyrazam and Hambra) were tested in their respective field formulations.
(§2) Leave discs were frozen in liquid nitrogen and ground prior to chlorophyll extraction with 1 mL of an acetone-water (80-20 vol/vol) solution and chlorophyll concentration evaluation at 663 nm. Percentages of chlorophyll content in 3 or 4 dpt controls and corresponding treated samples were reported to the chlorophyll content measured in 0 dpt controls.

The next assay has as its system barley leave discs. Put plainly: Chlorophyll preservation bioassay in barley leave discs. Conditions: barley leaves at 3 dpt vs control at 0 dpt. As for the experimental part:
as §1, §2

Assay [1] concerns winter wheat variety Dekan. The experiment in a line: Foliar application field trial Laacherhof: yield of winter wheat. In kind it is in vivo. Conditions: 50 g a.i./ha, sprayed threefold at BBCH 31, 39 and 69, 100EC formulation with adjuvant; for Grain Yield (dt/ha): untreated control 86.25. The method, then: (§3) The field trial in winter wheat was conducted in the experimental station “Laacherhof” in Germany in spring/summer 2012.
(§4) Seeds of the winter wheat variety “Dekan” were planted on Oct. 17, 2011. Fertilization, herbicide- and plant growth regulator applications were carried out according to the local agricultural practice. Additionally, a cover spray with “Pronto Plus” was carried out at BBCH-growth stage 51 in order to keep brown rust (Puccinia triticina) out of the field trial (trial under pathogen-free conditions). The trial was conducted with 3 replicates and the replicates 2 and 3 were randomized. The plot size was 8.8 m^2.
(§5) Compounds A5 (N-(5-chloro-2-isopropylbenzyl)-N-cyclopropyl-3-(difluoromethyl)-5-fluoro-1-methyl-1H-pyrazole-4-carboxamide), A7 (N-cyclopropyl-3-(difluoromethyl)-5-fluoro-N-(5-fluoro-2-isopropylbenzyl)-1-methyl-1H-pyrazole-4-carboxamide), A12 (N-cyclopropyl-3-(difluoromethyl)-5-fluoro-N-(2-isopropyl-5-methylbenzyl)-1-methyl-1H-pyrazole-4-carboxamide) and A10 (N-cyclopropyl-3-(difluoromethyl)-5-fluoro-N-(2-fluoro-6-isopropylbenzyl)-1-methyl-1H-pyrazole-4-carboxamide) were sprayed threefold at BBCH-growth stages 31, 39 and 69 with an use rate of 50 g a.i./ha. All compounds were applied as 100EC formulation adding an adjuvant.
The winter wheat was harvested on Aug. 3, 2012.

Assay [2] has as its system winter wheat variety Dekan. Put plainly: Foliar application field trial Laacherhof: greening effect in winter wheat. In kind it is in vivo. Conditions: 50 g a.i./ha, sprayed threefold at BBCH 31, 39 and 69; percentage of the color green; untreated control 21.7. The method, then:
as §3, §4, §5
The greening effect of the single treatments was evaluated on Jul. 6, 2012.

The mark [3] stands for this setting: formula (I) compounds in EC100 formulation, other SDHI in field formulations.

Structures are written as SMILES.

With `CC(C)C1C2CCC1c1c(NC(=O)c3cn(C)nc3C(F)F)cccc12` (stereo not shown) [Isopyrazam, reference compound], in the assay with wheat leave discs, the “colour of leave discs at the end of the experiment” value is reported as “discolored”. The “Chlorophyll content (%)” value is given as 49% in the assay on wheat leave discs (setting [3]) and 32% in the assay on barley leave discs (setting [3]).
Turning to `CC(C)c1ccccc1CN(C(=O)c1c(C(F)F)nn(C)c1F)C1CC1` [Compound A1, N-cyclopropyl-3-(difluoromethyl)-5-fluoro-N-(2-isopropylbenzyl)-1-methyl-1H-pyrazole-4-carboxamide], the “Chlorophyll content (%)” value in the assay on wheat leave discs (setting [3]) was 87%.
Regarding `Cc1ccc(C(C)C)c(CN(C(=O)c2c(C(F)F)nn(C)c2F)C2CC2)c1` [Compound A12, N-cyclopropyl-3-(difluoromethyl)-5-fluoro-N-(2-isopropyl-5-methylbenzyl)-1-methyl-1H-pyrazole-4-carboxamide], the “Chlorophyll content (%)” value in the assay on wheat leave discs (setting [3]) is on record as 88%. Further, the “Chlorophyll content (%)” value in the assay with barley leave discs (setting [3]) is given as 72%. For the same compound, in assay [1], the “Grain Yield (% of Untreated Control)” value is given as 110% and the “Grain Yield (dt/ha)” value was 94.9 dt/ha. For the same compound, the “Greening Effect (%)” value in assay [2] came to 53.3%.
`CC(C)c1cccc(F)c1CN(C(=O)c1c(C(F)F)nn(C)c1F)C1CC1` [Compound A10, N-cyclopropyl-3-(difluoromethyl)-5-fluoro-N-(2-fluoro-6-isopropylbenzyl)-1-methyl-1H-pyrazole-4-carboxamide]: in the assay with barley leave discs (setting [3]), the “Chlorophyll content (%)” value is on record as 60%. Also, in assay [1], the “Grain Yield (% of Untreated Control)” value is listed as 116% and the “Grain Yield (dt/ha)” value came to 99.9 dt/ha. For the same compound, in assay [2], the “Greening Effect (%)” value was 50.0%.
In the case of `Cn1cc(C(=O)Nc2ccccc2-c2cc(F)c(F)c(F)c2)c(C(F)F)n1` [Fluxapyroxad, reference compound], the “colour of leave discs at the end of the experiment” value in the assay with wheat leave discs is recorded as “discolored”. The “Chlorophyll content (%)” value in the assay on wheat leave discs (setting [3]) was found to be 51%; with barley leave discs (setting [3]) it was 28%.
As for `CC(C)c1ccc(F)cc1CN(C(=O)c1c(C(F)F)nn(C)c1F)C1CC1` [Compound A7, N-cyclopropyl-3-(difluoromethyl)-5-fluoro-N-(5-fluoro-2-isopropylbenzyl)-1-methyl-1H-pyrazole-4-carboxamide], the “Chlorophyll content (%)” value with wheat leave discs (tested in EC50 formulation) is recorded as 83%; in the assay with barley leave discs (tested in EC50 formulation), 77%. Further, in assay [1], the “Grain Yield (% of Untreated Control)” value is reported as 115%. The “Grain Yield (dt/ha)” value in assay [1] worked out at 99.4 dt/ha. Further, the “Greening Effect (%)” value in assay [2] is reported as 36.7%.
On to `Cc1ccc(C(C)(C)C)c(CN(C(=O)c2c(C(F)F)nn(C)c2F)C2CC2)c1` [Compound A14, N-(2-tert-butyl-5-methylbenzyl)-N-cyclopropyl-3-(difluoromethyl)-5-fluoro-1-methyl-1H-pyrazole-4-carboxamide], for which, in the assay with barley leave discs (setting [3]), the “Chlorophyll content (%)” value stood at 77%.
